Source: US20260265240A1, “PREPARATION METHOD FOR SALT FORM AND CRYSTAL FORM OF 2,6-PIPERIDINEDIONE COMPOUND AND USE THEREOF” (ZHANGZHOU PIEN TZE HUANG PHARMACEUTICAL CO., LTD., priority 2023, published 2026)
Structures can show the parent of a compound that is named as a salt.

Assays:
[1] = Pharmacokinetic evaluation in mice; assay type: in vivo, C57BL/6 or C57 mice; settings: male, C57BL/6, mouse, plasma, intravenous injection 2 mg/kg, fasted, read-out: Apparent Volume of Distribution
Excerpt: C57BL/6 or C57 male mice were selected as the test animals for this study. The LC/MS/MS method was employed to quantitatively determine the plasma drug concentrations at various time points after intravenous injection or intragastric administration of the test compound, aiming to evaluate the pharmacokinetic characteristics of the compound of the present disclosure in mice.
C57BL/6 or C57 mice (male, 20 to 30 g, 7 to 10 weeks old, Beijing Vital River).
A clear solution of the test compound was injected intravenously into the tail vein of C57BL/6 mice (fasted overnight) (vehicle: 10% DMSO/10% solutol/80% H2O), or administered intragastrically to C57 mice (fed). […] The mixture was thoroughly vortexed and mixed, and centrifuged at 6000 g for 3 minutes at 2 to 8° C. […] The mixture was thoroughly vortexed and mixed, and centrifuged at 6000 g for 3 minutes at 2 to 8° C. Plasma drug concentrations were determined by the LC-MS/MS method, and relevant pharmacokinetic parameters were calculated using Phoenix WinNonlin 8.2.0 pharmacokinetic software with non-compartmental model linear-log trapezoidal method.

[2] = Pharmacokinetic evaluation in beagle dogs; assay type: in vivo; settings: male, dog, plasma, intravenous injection 0.5 mg/kg, fed
Protocol: Male beagle dogs were selected as the experimental animals in this study.
Beagle dogs (male, 7 to 10 kg, Beijing Mars Biotechnology Co., Ltd.).
A clear solution of the test compound was slowly injected intravenously into beagle dogs (fed) via the peripheral vein (vehicle: […]/10% Solutol/85% H2O), or administered intragastrically to beagle dogs (fed). For intravenous administration, 0.5 mL of blood was collected from the peripheral vein at 0.083, 0.25, 0.5, 1, 2, 4, 6, 8, and 24 h after administration, placed in EDTA-2K anticoagulant tubes, and centrifuged at 3200 g for 10 minutes at 2 to 8° C. to separate the supernatant. For intragastric administration, 0.5 mL of blood was collected from the peripheral vein at 0.083, 0.25, 0.5, 1, 2, 4, 6, 8, and 24 h after administration, placed in EDTA-2K anticoagulant tubes, and centrifuged at 3200 g for 10 minutes at 2 to 8° C. to separate the supernatant. Plasma drug concentrations were determined by the LC-MS/MS method, and relevant pharmacokinetic parameters were calculated using Phoenix WinNonlin 6.3 pharmacokinetic software with non-compartmental model linear-log trapezoidal method.

O=C1CCC(c2noc3ccc4c(NC(=O)CN5CCN(C[C@H]6CC[C@H](n7cc(NC(=O)c8coc(-c9ccnc(NCC%10CC%10)c9)n8)c(C(F)F)n7)CC6)CC5)cccc4c23)C(=O)N1 (stereo partly drawn) [Hydrochloride of Compound of Formula (I)]
Vd [1]: 1.6 L/kg | clearance [2]: 21.3 mL/min/kg | half-life ([2]; read-out: Elimination Half-Life (converted)): 5.03 h
